According to ChEMBL document CHEMBL1134170, “Securiosides A and B, novel acylated triterpene bisdesmosides with selective cytotoxic activity against M-CSF-stimulated macrophages” (Bioorg Med Chem Lett, 2001):
Activity calls are given as the source filed them. The calls are words filed in the database; no cut-off is given here.

Columns and labels:
Ovis aries = species on record: Ovis aries; assay: Ability to hemolyze sheep erythrocytes and induce change in macrophage morphology and DNA fragmentation at a concentration of 10 ug/mL; inactive; type: functional
Mus musculus = species on record: Mus musculus; assay: Cytotoxic activity against M-CSF-stimulated macrophages (from male mice); type: functional

Row | Structure (SMILES) | Hemolysis (Ovis aries) | IC50 (Mus musculus) [nM]
1 | COc1ccc(/C=C/C(=O)O[C@H]2[C@@H](O[C@H]3O[C@H](COC(C)=O)[C@H](O)[C@H](O)[C@H]3O)[C@@H](O[C@H]3O[C@H](C)[C@@H](O[C@H]4OC[C@H](O)[C@H](O)[C@H]4O)[C@@H](O)[C@@H]3O)[C@H](OC(=O)[C@]34CCC(C)(C)C[C@H]3C3=CC[C@@H]5[C@@]6(C)C[C@H](O)[C@H](O[C@@H]7O[C@@H](CO)[C@@H](O)[C@H](O)[C@@H]7O)[C@@](C)(C(=O)O)C6CC[C@@]5(C)[C@]3(CO)CC4)O[C@@H]2C)cc1OC (some centres undefined) [SECURIOSIDE A] | inactive | < 250
2 | COc1ccc(/C=C/C(=O)O[C@H]2[C@H](O)[C@@H](O[C@H]3O[C@H](C)[C@@H](O[C@H]4OCC(O[C@H]5O[C@H](CO)[C@@H](O)[C@@H](O)[C@H]5O)C(O[C@H]5O[C@H](CO)[C@H](O)[C@@H](O)[C@H]5O)[C@H]4O)[C@@H](O)[C@@H]3O)[C@@H](OC(=O)[C@]34CCC(C)(C)C[C@H]3C3=CC[C@@H]5[C@@]6(C)C[C@H](O)[C@H](O[C@@H]7O[C@@H](CO)[C@@H](O)[C@H](O)[C@@H]7O)[C@@](C)(C(=O)O)C6CC[C@@]5(C)[C@]3(CO)CC4)O[C@@H]2C)cc1OC (some centres undefined) [SECURIOSIDE B] | inactive | < 250
